The assay addresses T1, Carboxypeptidase A1 (Bos taurus, UniProt P00730).
T1 sequence (P00730 whole entry): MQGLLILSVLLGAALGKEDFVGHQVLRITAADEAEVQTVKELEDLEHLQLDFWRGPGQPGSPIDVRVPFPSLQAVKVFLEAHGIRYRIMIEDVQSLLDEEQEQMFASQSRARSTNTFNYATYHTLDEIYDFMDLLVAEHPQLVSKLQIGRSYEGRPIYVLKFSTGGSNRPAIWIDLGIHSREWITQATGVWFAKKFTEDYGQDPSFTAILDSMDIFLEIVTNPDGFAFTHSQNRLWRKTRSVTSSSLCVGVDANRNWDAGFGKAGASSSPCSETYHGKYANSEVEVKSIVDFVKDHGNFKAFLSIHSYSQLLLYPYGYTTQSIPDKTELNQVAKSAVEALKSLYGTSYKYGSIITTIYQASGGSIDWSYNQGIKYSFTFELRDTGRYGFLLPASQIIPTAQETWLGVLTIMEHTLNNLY
As to the kind of experiment: Binding affinity against carboxypeptidase A using hippurylphenylalanine as substrate.
A word on the Ki: it is a measure of affinity in units of concentration, obtained from inhibition or displacement. A high value points to weaker binding. Take `O=C(O)C(CS)Cc1cc(F)c(F)c(F)c1` (configuration not stated): affinity was put at a Ki of 590 nM.

Regarding `Cc1ccc(CC(CS)C(=O)O)cc1C` (configuration not stated), the Ki was 492 nM.

For `O=C(O)C(CS)Cc1c(F)c(F)c(F)c(F)c1F` (configuration not stated), the Ki was 2300 nM.

The molecule `O=C(O)C(CS)Cc1ccc(F)c(F)c1` (configuration not stated) registered a Ki of 250 nM.

The molecule `O=C(O)C(CS)CC1CCCCC1` (configuration not stated) displayed a Ki of 2350 nM.

In turn, `O=C(O)C(CS)Cc1ccc(F)cc1` (configuration not stated) yielded a Ki of 37 nM.

`O=C(O)C(CS)Cc1ccc2ccccc2c1` (configuration not stated) had a Ki of 200 nM.

As to `Cc1ccc(CC(CS)C(=O)O)cc1` (configuration not stated), the affinity, expressed as Ki, was 112 nM.

For the molecule `CC(C)c1ccc(CC(CS)C(=O)O)cc1` (configuration not stated), the affinity, expressed as Ki, was 4500 nM.

In turn, `Cc1cccc(CC(CS)C(=O)O)c1C` (configuration not stated) came in with an inhibition constant Ki of 350 nM.

`CC(C)(C)c1ccc(CC(CS)C(=O)O)cc1` (configuration not stated) yielded a Ki of 7700 nM.

Regarding `Cc1cccc(CC(CS)C(=O)O)c1` (configuration not stated), the affinity corresponds to a Ki of 170 nM.

In turn, `O=C(O)C(CS)Cc1ccccc1F` (configuration not stated) yielded an inhibition constant (Ki) of 45 nM.

For `O=C(O)C(CS)Cc1cccc2ccccc12` (configuration not stated), the Ki stood at 480 nM.

In the case of `O=C(O)C(CS)Cc1cccc(F)c1` (configuration not stated), the Ki stood at 35 nM.

On to `Cc1ccccc1CC(CS)C(=O)O` (configuration not stated), for which affinity was put at a Ki of 120 nM.

Regarding `O=C(O)C(CS)Cc1ccccc1` (configuration not stated), the Ki was 11 nM.

These data come from ChEMBL document CHEMBL1150517, “The structural feature of S1 subsite of carboxypeptidase A” (Bioorg Med Chem Lett, 1991).
